{"source": "paper PMC4309170", "about": "“The dipeptidyl peptidase IV inhibitors vildagliptin and K-579 inhibit a phospholipase C: a case of promiscuous scaffolds in proteins” (F1000Research, 2015)", "target": "phosphoinositide-specific phospholipase C (PI-PLC) (Bacillus cereus, UniProt P14262)", "sequence (P14262 32-329 limits assumed)": "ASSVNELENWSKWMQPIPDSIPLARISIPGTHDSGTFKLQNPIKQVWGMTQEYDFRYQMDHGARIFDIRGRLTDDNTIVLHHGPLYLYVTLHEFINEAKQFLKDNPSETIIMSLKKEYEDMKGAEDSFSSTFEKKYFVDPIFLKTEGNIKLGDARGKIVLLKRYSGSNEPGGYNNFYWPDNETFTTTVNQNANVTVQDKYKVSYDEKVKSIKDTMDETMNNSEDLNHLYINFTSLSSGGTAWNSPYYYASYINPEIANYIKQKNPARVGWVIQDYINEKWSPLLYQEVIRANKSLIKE", "assay": "PI-PLC-induced liposome (LUV) aggregation assay, turbidity at […] nm, dose-response", "assay_type": "biochemical"}
{"molecule": "N#C[C@@H]1CCCN1C(=O)CNC12CC3CC(CC(O)(C3)C1)C2", "note": "[LAF-237, 1-[[(3-hydroxy-1-adamantyl)amino]acetyl]-2-cyano-(S)-pyrrolidine]", "values": [{"measurement": "IC50", "result": 100, "unit": "µM"}]}
